Source: US20240287046A1, “COMPOUNDS AND RADIOLIGANDS FOR TARGETING NEUROTENSIN RECEPTOR AND USES THEREOF” (Full-Life Technologies HK Limited, priority 2022, published 2024)

Tests used:
[1] = system: ASPC-1 tumor-bearing mice; experiment: Biodistribution of radionuclide labeled complexes in ASPC-1 tumor-bearing mice; assay type: in vivo, BALB/c nude mice
Summary of the method: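 BALB/c nude mice bore subcutaneous flank xenografts from ~4×10^6 NTSR-1-expressing cells, grown 2-4 weeks to ~0.05-0.50 g. Labeled compound, ~30-50 μCi (30-250 μCi/nmol specific activity) in 0.9% NaCl, was given by tail vein; organs were excised, weighed and γ-counted at various times for % ID and % ID/g.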

[2] = system: ASPC-1 tumor-bearing mice; experiment: SPECT/CT imaging of ^177Lu-labeled complexes; assay type: in vivo; details: over 72 hours
Experimental: ASPC-1 tumor-bearing mice were IV-injected with about 120 μCi of ^177Lu-labeled complexes, then anesthetized under 2% isoflurane/oxygen gas and placed on the scanner. SPECT/CT images were acquired in three bed positions for 30 min using a MILabs SPECT scanner. Whole-body SPECT images were acquired at 1 h, 4 h, 24 and 72 h after injecting the radiotracers.

HT-29 tumor-bearing mice = experiment: Biodistribution of radionuclide labeled complexes in HT-29 tumor-bearing mice; assay type: in vivo, BALB/c nude mice; details: Blood
Experimental: The BALB/c nude mice (Charles River, Beijing) were utilized to establish the xenografted model for biodistribution study. All animal care and experimental procedure were performed by following the animal protocols approved by the ethics committee of China Institute of Radiation Protection.
Briefly, each mouse was inoculated with approximately 4×10^6 ASPC-1 cells (human pancreatic cancer cell line) or HT-29 cells (human colorectal adenocarcinoma cell line) expressing human NTSR-1 by subcutaneous injection at rear flank. After inoculation, the xenografted tumors were allowed to grow for ˜2-4 weeks till the tumor weight reached to about 0.05 to 0.50 g (0.20 g in average).
Biodistribution studies were performed by administrating the radionuclide labeled test compound at a dose of ˜30-50 μCi (100 μL in 0.9% NaCl, ˜1.11-1.85 MBq, with specific activity 30-250 μCi/nmol) to each animal through tail vein injection.
At different time points after the administration, the mice treated with each compound were euthanized. The tissues and organs of the animals in each group were collected, excised, weighed, and analyzed in a PerkinElmer 2480 WIZARD2γ counter, and the percent injected dose (% ID) and % ID/g of each organ or tissue were calculated.

## COc1cccc(OC)c1-c1cc(C(=O)NC2(C(=O)O)C3CC4CC(C3)CC2C4)nn1-c1ccc(OCCCN(C)CCCN(C)C(=O)CN2CCN(CC(=O)[O-])CCN(CC(=O)[O-])CCN(CC(=O)[O-])CC2)cc1C(C)C.[177Lu+3] (centres unmarked) [^177Lu-I-7]
[1]
  tumor AUC over 72 hours compared to ^177Lu—C2: significantly higher tumor AUC
[1]; Blood, 1 h
  % ID/g (1 h) Blood: 9.79 ± 1.66 % ID/g
[1]; Blood, 4 h
  % ID/g (4 h) Blood: 1.8 ± 0.62 % ID/g
[1]; Blood, 24 h
  % ID/g (24 h) Blood: 0.07 ± 0.01 % ID/g
[1]; Blood, 72 h
  % ID/g (72 h) Blood: 0.01 ± 0 % ID/g
[1]; Femur, 1 h
  % ID/g (1 h) Femur: 1.65 ± 0.23 % ID/g
[1]; Femur, 4 h
  % ID/g (4 h) Femur: 0.49 ± 0.25 % ID/g
[1]; Femur, 24 h
  % ID/g (24 h) Femur: 0.12 ± 0.04 % ID/g
[1]; Femur, 72 h
  % ID/g (72 h) Femur: 0.06 ± 0.03 % ID/g
[1]; Heart, 1 h
  % ID/g (1 h) Heart: 3.47 ± 0.56 % ID/g
[1]; Heart, 4 h
  % ID/g (4 h) Heart: 0.58 ± 0.32 % ID/g
[1]; Heart, 24 h
  % ID/g (24 h) Heart: 0.29 ± 0.14 % ID/g
[1]; Heart, 72 h
  % ID/g (72 h) Heart: 0.08 ± 0.01 % ID/g
[1]; Intestine, 1 h
  % ID/g (1 h) Intestine: 2.53 ± 0.58 % ID/g
[1]; Intestine, 4 h
  % ID/g (4 h) Intestine: 1.69 ± 0.45 % ID/g
[1]; Intestine, 24 h
  % ID/g (24 h) Intestine: 0.62 ± 0.04 % ID/g
[1]; Intestine, 72 h
  % ID/g (72 h) Intestine: 0.19 ± 0.07 % ID/g
[1]; Kidney, 1 h
  % ID/g (1 h) Kidney: 2.85 ± 0.45 % ID/g
[1]; Kidney, 4 h
  % ID/g (4 h) Kidney: 2.05 ± 0.48 % ID/g
[1]; Kidney, 24 h
  % ID/g (24 h) Kidney: 1.2 ± 0.17 % ID/g
[1]; Kidney, 72 h
  % ID/g (72 h) Kidney: 0.48 ± 0.12 % ID/g
[1]; Liver, 1 h
  % ID/g (1 h) Liver: 3.93 ± 0.43 % ID/g
[1]; Liver, 4 h
  % ID/g (4 h) Liver: 1.88 ± 1.00 % ID/g
[1]; Liver, 24 h
  % ID/g (24 h) Liver: 0.84 ± 0.09 % ID/g
[1]; Liver, 72 h
  % ID/g (72 h) Liver: 0.23 ± 0.01 % ID/g
[1]; Lung, 1 h
  % ID/g (1 h) Lung: 3.12 ± 1.25 % ID/g
[1]; Lung, 4 h
  % ID/g (4 h) Lung: 1.1 ± 0.49 % ID/g
[1]; Lung, 24 h
  % ID/g (24 h) Lung: 0.43 ± 0.14 % ID/g
[1]; Lung, 72 h
  % ID/g (72 h) Lung: 0.13 ± 0.1 % ID/g
[1]; Muscle, 1 h
  % ID/g (1 h) Muscle: 1.1 ± 0.3 % ID/g
[1]; Muscle, 4 h
  % ID/g (4 h) Muscle: 0.27 ± 0.2 % ID/g
[1]; Muscle, 24 h
  % ID/g (24 h) Muscle: 0.34 ± 0.3 % ID/g
[1]; Muscle, 72 h
  % ID/g (72 h) Muscle: 0.011 ± 0.01 % ID/g
[1]; Pancreas, 1 h
  % ID/g (1 h) Pancreas: 0.67 ± 0.28 % ID/g
[1]; Pancreas, 4 h
  % ID/g (4 h) Pancreas: 0.24 ± 0.22 % ID/g
[1]; Pancreas, 24 h
  % ID/g (24 h) Pancreas: 0.29 ± 0.21 % ID/g
[1]; Pancreas, 72 h
  % ID/g (72 h) Pancreas: 0.02 ± 0.01 % ID/g
[1]; Spleen, 1 h
  % ID/g (1 h) Spleen: 0.63 ± 0.19 % ID/g
[1]; Spleen, 4 h
  % ID/g (4 h) Spleen: 0.58 ± 0.15 % ID/g
[1]; Spleen, 24 h
  % ID/g (24 h) Spleen: 0.23 ± 0.11 % ID/g
[1]; Spleen, 72 h
  % ID/g (72 h) Spleen: 0.06 ± 0.01 % ID/g
[1]; Stomach, 1 h
  % ID/g (1 h) Stomach: 1.01 ± 0.82 % ID/g
[1]; Stomach, 4 h
  % ID/g (4 h) Stomach: 0.58 ± 0.59 % ID/g
[1]; Stomach, 24 h
  % ID/g (24 h) Stomach: 0.21 ± 0.08 % ID/g
[1]; Stomach, 72 h
  % ID/g (72 h) Stomach: 0.04 ± 0.01 % ID/g
[1]; Tumor, 1 h
  % ID/g (1 h) Tumor: 15.27 ± 8.72 % ID/g
[1]; Tumor, 4 h
  % ID/g (4 h) Tumor: 19.97 ± 10.42 % ID/g
[1]; Tumor, 24 h
  % ID/g (24 h) Tumor: 22.83 ± 1.14 % ID/g
[1]; Tumor, 72 h
  % ID/g (72 h) Tumor: 18.07 ± 0.98 % ID/g
[1]; compared to ^177Lu—C2
  ratio of tumor AUC verse normal organ AUC: significantly improved
[2]
  clearance from other organs or tissues (SPECT/CT): rapid clearance
  retention in tumors (SPECT/CT): sustained retention in tumors
HT-29 tumor-bearing mice; 1 h
  % ID/g (1 h) Blood: 16.51 ± 0.56 % ID/g
HT-29 tumor-bearing mice; 4 h
  % ID/g (4 h) Blood: 2.85 ± 1.23 % ID/g
HT-29 tumor-bearing mice; 24 h
  % ID/g (24 h) Blood: 0.06 ± 0.02 % ID/g
HT-29 tumor-bearing mice; 72 h
  % ID/g (72 h) Blood: 0.03 ± 0 % ID/g
